Assay results published in patent US20220218833A1, “PLATELET-FACILITATED DELIVERY OF THERAPEUTIC COMPOUNDS” (CSTS Health Care Inc., priority 2019, published 2022).
Entries after “also recorded” stand apart in the source; their conditions may differ. Where no end group is shown, it is not given here.

Tests used:
isolated platelets = assay: Platelet loading of Alexa647-labeled peptides, decrease in supernatant fluorescence; assay type: cell-based; settings: for absorbance of supernatant, complete versus loaded measurements (loading into platelets): Alexa647-labeled peptides co-incubated with isolated platelets at 37° C. for one hour, FIG. 1A; for loading of attached cargo into platelets, loaded condition normalized to complete condition: Alexa647 as cargo, FIG. 1B
Method: Alexa647-labeled GAG-binding peptides, identified in FIG. 1A and FIG. 1B as PAL1 and PAL2 and an Alexa647-labeled control peptide (a charge-free ligand (CFL) which served as a negative control), were tested for their binding affinity for glycosaminoglycans, such as chondroitin sulfate, and their abilities to enter platelets.
Alexa647-labeled peptides or Alexa647 alone were co-incubated with isolated platelets at 37° C. for one hour to allow for platelet loading. The respective platelet-loading ability was indicated by a decrease in fluorescence in supernatant following the incubation. For controls, identical experiments were performed without the incubation period (noted as “complete” in the figure). Platelets following co-incubation were then centrifuged at 800 g for 10-minutes to separate platelets from supernatant (noted as “loaded” in the figure).
FIG. 1B represents the data in FIG. 1A normalized for each peptide experiment, i.e., normalization of a loaded condition to its complete condition.

[1] = Affinity chromatography of peptides; assay type: binding; settings: FIG. 4
Method: Additionally, the binding affinities for the two illustrative GAG-binding peptides and the CFL to heparan sulfate (HS) was determined using affinity chromatography.

[2] = test system: alpha granules of platelets; assay: Confocal microscopy of Alexa647-labeled peptides with PF4 alpha granule marker; assay type: cell-based; settings: for loading of attached cargo into alpha granules of platelets (Alexa647 intensities for each ROI): ROIs selected on PF4 intensity, FIG. 2B
Method: To confirm that the Alexa647-labeled GAG-binding peptides were loaded into alpha granules of platelets, confocal microscopy was used. The platelets that were centrifuged in the experiments of FIG. 1A and FIG. 1B, were fixed in 2% paraformaldehyde and settled onto glass coverslips. After permeabilization, immunofluorescence staining was performed against PF4, which is a marker for alpha granules of platelets. Platelets were stained with Alexa568-secondary antibody. Images were collected through a Nikon-A1 laser-scanning microscope equipped with a 60× oil objective lens.
FIG. 2A are representative images with PF4 staining shown in red (left column) and the Alexa647 signal (from the free Alexa647, Alexa647-labeled GAG-binding peptide, or Alexa647-labeled CFL; middle column) shown in purple. Images were only adjusted for brightness and contrast for display. n>5 images were acquired for each experiment and regions of interest (ROIs) were selected based on PF4 intensity.
The Alexa647 intensities for each ROI were measured using ImageJ and plotted in box and whisker graph using Prism 8.

platelets = assay: Cargo loading into platelets contacted with a non-specific GAG inhibitor; assay type: cell-based; settings: platelets contacted with the inhibitor
From the text: The present invention is based, in part, on the discovery that cargo can be loaded in alpha granules and that this loading is not receptor-mediated. Instead, cargo loading into platelets, and specifically into their alpha granules, relies on the binding to glycosaminoglycans (GAG) in the alpha granules of the platelets.

RFRWPYRIREF (SEQ ID NO: 2) (also: Alexa647 label) [PAL2]
absorbance of supernatant, complete versus loaded measurements (loading into platelets) (isolated platelets): decrease in absorbance | loading of attached cargo into platelets, loaded condition normalized to complete condition (isolated platelets): facilitates loading of an attached cargo into platelets | relative affinity for HS, PAL2 versus PAL1 [1]: greater affinity for HS than PAL′; also recorded: binds HS tighter than PALL | loading of attached cargo into alpha granules of platelets (Alexa647 intensities for each ROI) [2]: facilitates loading of an attached cargo into alpha granules of platelets

ERRIWFPYRRF (SEQ ID NO: 1) (also: Alexa647 label) [PAL1]
absorbance of supernatant, complete versus loaded measurements (loading into platelets) (isolated platelets): decrease in absorbance | loading of attached cargo into platelets, loaded condition normalized to complete condition (isolated platelets): facilitates loading of an attached cargo into platelets | loading of attached cargo into alpha granules of platelets (Alexa647 intensities for each ROI) [2]: facilitates loading of an attached cargo into alpha granules of platelets

CFL: control peptide, a charge-free ligand, SEQ ID NO: 14, negative control (EGGIWFPYGGF) [reference compound]
absorbance of supernatant, complete versus loaded measurements (loading into platelets) (isolated platelets): did not change | loading of attached cargo into platelets, loaded condition normalized to complete condition (isolated platelets): unable to direct loading of the cargo into platelets | binding to heparan sulfate (HS) [1]: did not bind to HS | loading of attached cargo into alpha granules of platelets (Alexa647 intensities for each ROI) [2]: do not load into platelets | colocalization of alpha granule marker PF4 and Alexa647 signal ([2]; merged confocal images, FIG. 2A): Co-localization was not observed

Cc1cc(N)c2cc(NC(=O)Nc3ccc4nc(C)cc(N)c4c3)ccc2n1 [Surfen]
amount of cargos loaded into platelets (platelets): reduced amounts of cargos are loaded into platelets
